From patent US20080200454A1, “CARBON-LINKED TETRAHYDRO-PYRAZOLO-PYRIDINE MODULATORS OF CATHEPSIN S” (priority 2007, published 2008)

Biological target: Recombinant human cathepsin S (CatS) (Homo sapiens, UniProt P25774)
Assay: Recombinant human cathepsin S (CatS) inhibition assay, fluorogenic substrate Z-Valine-Valine-Arginine-AMC;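 further: Baculovirus-expressed CatS in pH 5.0 sodium acetate buffer with DTT and NaCl, fluorescence read each minute over 20 min, inhibition derived from rate slope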
Conditions: not given

Chain of Recombinant human cathepsin S (CatS) (P25774 115-331): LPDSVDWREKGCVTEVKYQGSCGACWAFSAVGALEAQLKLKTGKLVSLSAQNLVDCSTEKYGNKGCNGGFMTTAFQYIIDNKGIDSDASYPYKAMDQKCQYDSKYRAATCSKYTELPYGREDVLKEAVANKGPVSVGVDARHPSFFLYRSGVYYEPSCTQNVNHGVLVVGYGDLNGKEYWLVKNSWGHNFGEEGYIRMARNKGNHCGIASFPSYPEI

IC50	Structure (SMILES)
160 nM	CC(=O)NCC(=O)N1CCc2c(c(-c3ccc(Cl)c(C#Cc4ccc(CNCc5ccc(Cl)cc5)cc4)c3)nn2CCCN2CCOCC2)C1 [Example 499, N-{2-[3-(4-Chloro-3-{[4-({[(4-chlorophenyl)methyl]amino}methyl)phenyl]ethynyl}phenyl)-1-(3-morpholin-4-ylpropyl)-1,4,6,7-tetrahydro-5H-pyrazolo[4,3-c]pyridin-5-yl]-2-oxoethyl}acetamide]
30 nM	CCNCc1cc(C#Cc2cc(-c3nn(CCCN4CCCCC4)c4c3CN(C(N)=O)CC4)ccc2Cl)ccc1Cl [Example 167, 3-[4-Chloro-3-({4-chloro-3-[(ethylamino)methyl]phenyl}ethynyl)phenyl]-1-(3-piperidin-1-ylpropyl)-1,4,6,7-tetrahydro-5H-pyrazolo[4,3-c]pyridine-5-carboxamide]
380 nM	CC(C)(C)OC(=O)N1CCc2ccc(C#Cc3cc(-c4nn(CC(O)CN5CCCCC5)c5c4CN(S(C)(=O)=O)CC5)ccc3Cl)cc2C1 (stereo not shown) [Example 371, 1,1-Dimethylethyl 7-({2-chloro-5-[1-(2-hydroxy-3-piperidin-1-ylpropyl)-5-(methylsulfonyl)-4,5,6,7-tetrahydro-1H-pyrazolo[4,3-c]pyridin-3-yl]phenyl}ethynyl)-3,4-dihydroisoquinoline-2(1H)-carboxylate]
1410 nM	CS(=O)(=O)N1CCc2c(c(-c3ccc(Cl)c(CCCNS(=O)(=O)c4cccc(C#N)c4)c3)nn2CCCN2CCC(N3CCCC3=O)CC2)C1 [Example 98, N-{3-[2-Chloro-5-(5-methanesulfonyl-1-{3-[4-(2-oxo-pyrrolidin-1-yl)-piperidin-1-yl]-propyl}-4,5,6,7-tetrahydro-1H-pyrazolo[4,3-c]pyridin-3-yl)-phenyl]-propyl}-3-cyano-benzenesulfonamide]
20 nM	CS(=O)(=O)N1CCc2c(c(-c3ccc(Cl)c(C#Cc4ccc(CNCc5ccc(Cl)cc5)cc4)c3)nn2CCCN2CCC(NC(=O)CO)CC2)C1 [Example 356, N-(1-{3-[3-(4-Chloro-3-{[4-({[(4-chlorophenyl)methyl]amino}methyl)phenyl]ethynyl}phenyl)-5-(methylsulfonyl)-4,5,6,7-tetrahydro-1H-pyrazolo[4,3-c]pyridin-1-yl]propyl}piperidin-4-yl)-2-hydroxyacetamide]
1330 nM	CN(Cc1ccccc1)Cc1cccc(CCc2cc(-c3nn(CCCN4CCOCC4)c4c3CN(S(C)(=O)=O)CC4)ccc2Cl)c1 [Example 530, 1-[3-(2-{2-Chloro-5-[5-(methylsulfonyl)-1-(3-morpholin-4-ylpropyl)-4,5,6,7-tetrahydro-1H-pyrazolo[4,3-c]pyridin-3-yl]phenyl}ethyl)phenyl]-N-methyl-N-(phenylmethyl)methanamine]
1360 nM	CNCc1ccc(C#Cc2cc(-c3nn(CCCN4CCOCC4)c4c3CN(S(C)(=O)=O)CC4)ccc2Cl)cc1 [Example 315, 1-[4-({2-Chloro-5-[5-(methylsulfonyl)-1-(3-morpholin-4-ylpropyl)-4,5,6,7-tetrahydro-1H-pyrazolo[4,3-c]pyridin-3-yl]phenyl}ethynyl)phenyl]-N-methylmethanamine]
10 nM	CS(=O)(=O)N1CCc2c(c(-c3ccc(Cl)c(C#Cc4ccc5c(c4)CNCC5)c3)nn2CCCN2CCN(c3ccccc3)CC2)C1 [Example 225, 7-[(2-Chloro-5-{5-(methylsulfonyl)-1-[3-(4-phenylpiperazin-1-yl)propyl]-4,5,6,7-tetrahydro-1H-pyrazolo[4,3-c]pyridin-3-yl}phenyl)ethynyl]-1,2,3,4-tetrahydroisoquinoline]
60 nM	NC(=O)N1CCc2c(c(-c3ccc(Cl)c(C#Cc4ccc(CNCc5ccc(Cl)cc5)cc4)c3)nn2CCCN2CCCCC2)C1 [Example 458, 3-(4-Chloro-3-{[4-({[(4-chlorophenyl)methyl]amino}methyl)phenyl]ethynyl}phenyl)-1-(3-piperidin-1-ylpropyl)-1,4,6,7-tetrahydro-5H-pyrazolo[4,3-c]pyridine-5-carboxamide]
720 nM	CC(C)(C)OC(=O)N1CCc2ccc(C#Cc3cc(-c4nn(CCCN5CCOCC5)c5c4CN(S(C)(=O)=O)CC5)ccc3Cl)cc2C1 [Example 370, 1,1-Dimethylethyl 7-({2-chloro-5-[5-(methylsulfonyl)-1-(3-morpholin-4-ylpropyl)-4,5,6,7-tetrahydro-1H-pyrazolo[4,3-c]pyridin-3-yl]phenyl}ethynyl)-3,4-dihydroisoquinoline-2(1H)-carboxylate]

Same assay, conditions: CatS IC50

Structure (SMILES)	IC50
O=C(c1ccccn1)N1CCc2c(c(-c3ccc(Cl)c(C#Cc4ccc(Cl)cc4)c3)nn2CCCN2CCOCC2)C1 [Example 137, [3-[4-Chloro-3-(4-chloro-phenylethynyl)-phenyl]-1-(3-morpholin-4-yl-propyl)-1,4,6,7-tetrahydro-pyrazolo[4,3-c]pyridin-5-yl]-pyridin-2-yl-methanone]	140 nM
CS(=O)(=O)N1CCc2c(c(-c3ccc(Cl)c(C#Cc4ccc(CNCc5ccc(Cl)cc5)cc4)c3)nn2CCCN2CCSCC2)C1 [Example 183, 1-[4-({2-Chloro-5-[5-(methylsulfonyl)-1-(3-thiomorpholin-4-ylpropyl)-4,5,6,7-tetrahydro-1H-pyrazolo[4,3-c]pyridin-3-yl]phenyl}ethynyl)phenyl]-N-[(4-chlorophenyl)methyl]methanamine]	80 nM
NC(=O)C(=O)N1CCc2c(c(-c3ccc(Cl)c(C#Cc4ccc(CNCc5ccc(Cl)cc5)cc4)c3)nn2CCCN2CCC(C(N)=O)CC2)C1 [Example 450, 1-(3-{5-[Amino(oxo)acetyl]-3-(4-chloro-3-{[4-({[(4-chlorophenyl)methyl]amino}methyl)phenyl]ethynyl}phenyl)-4,5,6,7-tetrahydro-1H-pyrazolo[4,3-c]pyridin-1-yl}propyl)piperidine-4-carboxamide]	70 nM
C[C@H]1COCCN1CCCn1nc(-c2ccc(Cl)c(C#Cc3ccc(Cl)c(C(=O)NCCCNC(=O)OC(C)(C)C)c3)c2)c2c1CCN(C(=O)C(N)=O)C2 [Example 577, tert-Butyl (3-{[(5-{[5-(5-[amino(oxo)acetyl]-1-{3-[(3S)-3-methylmorpholin-4-yl]propyl}-4,5,6,7-tetrahydro-1H-pyrazolo[4,3-c]pyridin-3-yl)-2-chlorophenyl]ethynyl}-2-chlorophenyl)carbonyl]amino}propyl)carbamate]	20 nM
CC(C)(C)OC(=O)N1CCN(CCCn2nc(-c3ccc(Cl)c(C#Cc4ccc(CNCc5ccc(Cl)cc5)cc4)c3)c3c2CCN(S(C)(=O)=O)C3)CC1 [Example 367, 1,1-Dimethylethyl 4-{3-[3-(4-chloro-3-{[4-({[(4-chlorophenyl)methyl]amino}methyl)phenyl]ethynyl}phenyl)-5-(methylsulfonyl)-4,5,6,7-tetrahydro-1H-pyrazolo[4,3-c]pyridin-1-yl]propyl}piperazine-1-carboxylate]	90 nM
CC(=O)N1CCC(C2CCN(C[C@H](O)Cn3nc(-c4ccc(Cl)c(CCc5ccc(Cl)cc5)c4)c4c3CCN(S(C)(=O)=O)C4)CC2)CC1 [Example 247, (2S)-1-(1′-Acetyl-4,4′-bipiperidin-1-yl)-3-[3-{4-chloro-3-[2-(4-chlorophenyl)ethyl]phenyl}-5-(methylsulfonyl)-4,5,6,7-tetrahydro-1H-pyrazolo[4,3-c]pyridin-1-yl]propan-2-ol]	70 nM
